Source: ChEMBL document CHEMBL6114969, “Ultra-short lipopeptides containing d-amino acid exhibiting excellent stability and antibacterial activity against gram-positive bacteria” (Eur J Med Chem, 2025)
Values after ≈ are worked out from the molar mass of the structure shown. Active and inactive are the calls of the source. No cut-off for these calls is given here.

Legend:
Staphylococcus aureus [1] = assay: Antibacterial activity against methicillin-resistant Staphylococcus aureus ATCC 33591 incubated for 18 to 24 hrs by broth microdilution method; assay type: functional; conditions: time 18-24 hrs
[2] = Toxicity in Balb/c mouse assessed as survival rate at 20 to 40 mg/kg, ip measured after 7 days; assay type: organism-based; conditions: in vivo, dose 20-40 mg/kg, time 7 day
Enterococcus faecalis = assay: Antibacterial activity against Enterococcus faecalis ATCC 29212 incubated for 18 to 24 hrs by broth microdilution method; assay type: functional; conditions: time 18-24 hrs
Staphylococcus aureus [3] = assay: Inhibition of imipenem-induced drug resistance in […] Staphylococcus aureus ATCC 33591 at sub-MIC measured upto 15 passages; assay type: functional, organism-based
[4] = Toxicity in Balb/c mouse assessed as inflammatory cell infiltration in kidney at 80 mg/kg, ip measured after 7 days by H and E staining based analysis; assay type: organism-based; conditions: in vivo, 168 h, time 7 day
Staphylococcus aureus [5] = assay: Antibacterial activity against gentamicin-resistant Staphylococcus aureus ATCC 25923 incubated for 18 to 24 hrs; assay type: functional; conditions: time 18-24 hrs
[6] = Retention time of compound by RP-HPLC analysis; assay type: physicochemical
Staphylococcus aureus [7] = assay: Inhibition of ciprofloxacin-induced drug resistance in Staphylococcus aureus ATCC 25923 at sub-MIC measured upto 15 passages; assay type: functional, organism-based
Staphylococcus aureus [8] = assay: Antibacterial activity against methicillin-resistant Staphylococcus aureus ATCC 33591 assessed as fold change in MIC incubated for 18 to 24 hrs in presence of 10 percent mouse serum by broth microdilution method; assay type: functional; conditions: time 18-24 hrs
Staphylococcus aureus [9] = assay: Synergistic antibacterial activity against methicillin-resistant Staphylococcus aureus ATCC 33591 assessed as fractional inhibitory concentration index upto 2 times MIC incubated for 18 to 24 hrs in presence of ciprofloxacin by checkerboard assay; assay type: functional; conditions: time 18-24 hrs
Staphylococcus aureus [10] = assay: Antibacterial activity against methicillin-resistant Staphylococcus aureus ATCC 33591 assessed as fold change in MIC incubated for 18 to 24 hrs in presence of 10 percent FBS by broth microdilution method; assay type: functional; conditions: time 18-24 hrs
[11] = Toxicity in Balb/c mouse assessed as inflammatory cell infiltration in liver at 80 mg/kg, ip measured after 7 days by H and E staining based analysis; assay type: organism-based; conditions: in vivo, 168 h, time 7 day
Staphylococcus aureus [12] = assay: (§1) Antibacterial activity against methicillin-resistant Staphylococcus aureus ATCC 33591 infected in Balb/c mouse model of pneumonia infection assessed as reduction in TNF-alpha activity in lung at 10 mg/kg, ip administered thrice at 4, 8 and 12 hrs post-infection measured after 24 hrs post-infection by IHC analysis; assay type: functional, organism-based; conditions: time 20.0 hrs
Staphylococcus aureus [13] = assay: as §1, with “bleeding” for “TNF-alpha activity”, “H and E staining based” for “IHC”; assay type: functional, organism-based; conditions: time 20.0 hrs
Staphylococcus aureus [14] = assay: Antibacterial activity against polymyxin B-resistant Staphylococcus aureus ATCC 25923 incubated for 18 to 24 hrs; assay type: functional; conditions: time 18-24 hrs
[15] = Stability in mouse serum assessed as compound degradation measured upto 96 hrs by RP-HPLC analysis; assay type: ADME, cell-free; conditions: read-out: Drug degradation
Staphylococcus aureus [16] = assay: Induction of ROS production in methicillin-resistant Staphylococcus aureus ATCC 33591 at 4 times MIC measured upto 360 mins in presence of NAC by DCFH-DA dye based analysis; assay type: functional, organism-based
Staphylococcus aureus [17] = assay: Antibacterial activity against methicillin-resistant Staphylococcus aureus ATCC 33591 infected in Balb/c mouse model of skin wound infection assessed as crusted back wound at 10 mg/kg, ip administered thrice at 1, 24 and 48 hrs post-infection measured after 9 days in presence of polymyxin B relative to control; assay type: functional; conditions: time 9 day
Staphylococcus aureus [18] = assay: Antibacterial activity against methicillin-resistant Staphylococcus aureus ATCC 33591 infected in Balb/c mouse model of skin wound infection assessed as crusted back wound at 10 mg/kg, ip administered thrice at 1, 24 and 48 hrs post-infection measured after 9 days relative to control; assay type: functional; conditions: time 9 day
Staphylococcus aureus [19] = assay: Antibacterial activity against methicillin-resistant Staphylococcus aureus ATCC 33591 infected in Balb/c mouse model of acute systemic infection assessed as reduction in hemorrhage in lung at 10 mg/kg, ip measured after 5 days by H and E staining based analysis; assay type: functional, organism-based; conditions: time 5.0 day
Staphylococcus aureus [20] = assay: (§2) Antibacterial activity against methicillin-resistant Staphylococcus aureus ATCC 33591 infected in Balb/c mouse model of pneumonia infection assessed as reduction in alveolar contraction in lung at 10 mg/kg, ip administered thrice at 4, 8 and 12 hrs post-infection measured after 24 hrs post-infection in presence of polymyxin B by H and E staining based analysis; assay type: functional, organism-based; conditions: time 20.0 hrs
[21] = Toxicity in Balb/c mouse assessed as change in heart co-efficient at 20 to 80 mg/kg, ip measured after 7 days; assay type: organism-based; conditions: in vivo, 168 h, dose 20-80 mg/kg, time 7 day
[22] = Toxicity in Balb/c mouse assessed as cell swelling in liver at 80 mg/kg, ip measured after 7 days by H and E staining based analysis; assay type: organism-based; conditions: in vivo, 168 h, time 7 day
Staphylococcus aureus [23] = assay: Antibacterial activity against gentamicin-resistant methicillin-resistant Staphylococcus aureus ATCC 33591 incubated for 18 to 24 hrs; assay type: functional; conditions: time 18-24 hrs
Staphylococcus aureus [24] = assay: Antibacterial activity against methicillin-resistant Staphylococcus aureus ATCC 33591 incubated for 18 to 24 hrs in presence of 0.5 mg/ml of trypsin by broth microdilution method; assay type: functional; conditions: time 18-24 hrs
Staphylococcus aureus [25] = assay: as §2, with “post-infection” for “post-infection in presence of polymyxin B”; assay type: functional, organism-based
Staphylococcus aureus [26] = assay: Antibacterial activity against methicillin-resistant Staphylococcus aureus ATCC 33591 infected in Balb/c mouse model of acute systemic infection assessed as reduction in alveolar contraction in lung at 10 mg/kg, ip measured after 5 days by H and E staining based analysis; assay type: functional, organism-based; conditions: time 5.0 day
Staphylococcus aureus [27] = assay: Synergistic bactericidal activity against methicillin-resistant Staphylococcus aureus ATCC 33591 incubated for 18 to 24 hrs in presence of Polymyxin B by time-kill assay; assay type: functional, organism-based; conditions: time 18-24 hrs
Staphylococcus aureus [28] = assay: Destruction of cell membrane in methicillin-resistant Staphylococcus aureus ATCC 33591 assessed as increase in red fluorescence intensity incubated for 2 hrs by PI staining based analysis; assay type: functional, organism-based
Staphylococcus aureus [29] = assay: as §2, with “skin wound” for “pneumonia”, “inflammatory cell infiltration” for “alveolar contraction”, “skin” for “lung”, “1, 24” for “4, 8”, “48” for “12”, “14 days” for “24 hrs post-infection”; assay type: functional, organism-based; conditions: time 14.0 day
Staphylococcus aureus [30] = assay: Antibacterial activity against methicillin-resistant Staphylococcus aureus ATCC 33591 infected in Balb/c mouse model of acute systemic infection assessed as reduction in cell swelling in liver at 10 mg/kg, ip measured after 5 days by H and E staining based analysis; assay type: functional, organism-based; conditions: time 5.0 day
Staphylococcus aureus [31] = assay: Antibacterial activity against methicillin-resistant Staphylococcus aureus ATCC 33591 infected in Balb/c mouse model of acute systemic infection assessed as reduction in bacterial count in spleen at 10 mg/kg, ip measured after 5 days; assay type: functional, organism-based; conditions: time 5.0 day
Staphylococcus aureus [32] = assay: Induction of cell membrane damage in methicillin-resistant Staphylococcus aureus ATCC 33591 assessed as protein leakage at 2 to 8 times MIC measured upto 360 mins by absorbance based assay; assay type: functional, organism-based
Staphylococcus aureus [33] = assay: Induction of morphological changes in methicillin-resistant Staphylococcus aureus ATCC 33591 assessed as large area membrane melting at 4 times MIC incubated for 2 hrs by SEM analysis; assay type: functional, organism-based
[34] = Toxicity in Balb/c mouse assessed as cell swelling in kidney at 80 mg/kg, ip measured after 7 days by H and E staining based analysis; assay type: organism-based; conditions: in vivo, 168 h, time 7 day
Staphylococcus aureus [35] = assay: Synergistic antibacterial activity against methicillin-resistant Staphylococcus aureus ATCC 33591 assessed as fractional inhibitory concentration index upto 2 times MIC incubated for 18 to 24 hrs in presence of imipenem by checkerboard assay; assay type: functional; conditions: time 18-24 hrs

CCCCCCCCCCCC(=O)N[C@H](CCCNC(=N)N)C(=O)N[C@H](CCCNC(=N)N)C(=O)N[C@H](Cc1c[nH]c2ccccc12)C(=O)O
MIC (Staphylococcus aureus [1]): 4 µM (≈ 2.8 µg/mL)
survival at 168 h [2]: 100%
MIC (Enterococcus faecalis): 8 µM (≈ 5.59 µg/mL)
inhibition (Staphylococcus aureus [3]): Active
Activity [4]: Toxic
MIC (Staphylococcus aureus [5]): 8 µM (≈ 5.59 µg/mL)
Retention_time [6]: 17.826 min
inhibition (Staphylococcus aureus [7]): Active
fold change (FC) (Staphylococcus aureus [8]): 8
fractional inhibitory concentration index (FICI) (Staphylococcus aureus [9]): 0.75
fold change (FC) (Staphylococcus aureus [10]): 8
Activity [11]: Toxic
Activity (Staphylococcus aureus [12]): Active
Activity (Staphylococcus aureus [13]): Active
MIC (Staphylococcus aureus [14]): 4 µM (≈ 2.8 µg/mL)
metabolised at 96 h [15]: ~20%
Activity (Staphylococcus aureus [16]): inactive
Activity (Staphylococcus aureus [17]): 100%
Activity (Staphylococcus aureus [18]): 100%
Activity (Staphylococcus aureus [19]): Active
Activity (Staphylococcus aureus [20]): Not active; Compound Exerted Slightly More Severe Than Compound Treatment Alone
Activity [21]: Non-toxic
Activity [22]: Toxic
MIC (Staphylococcus aureus [23]): 8 µM (≈ 5.59 µg/mL)
MIC (Staphylococcus aureus [24]): 4 µM
Activity (Staphylococcus aureus [25]): Active
Activity (Staphylococcus aureus [26]): Active
Activity (Staphylococcus aureus [27]): Active; Compound Exhibited Better Effect Than Compound Alone-Treatment; Although It Was Lower Than Polymyxin B, It Significantly Reduced Dosage Of Polymyxin B And Reduced Toxicity Of The Drug
Activity (Staphylococcus aureus [28]): Dose-dependent-effect
Activity (Staphylococcus aureus [29]): Active
Activity (Staphylococcus aureus [30]): Active
Activity (Staphylococcus aureus [31]): Active
Activity (Staphylococcus aureus [32]): Active
Activity (Staphylococcus aureus [33]): Active
Activity [34]: Toxic
fractional inhibitory concentration index (FICI) (Staphylococcus aureus [35]): 0.25
